Experimental data taken from PubChem BioAssay (NCI).
Values joined by “and” are separate entries in the source; they are usually repeats but may differ in a detail not shown here. Equal values may be shown once.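 Cultured in 96-well plates, cells were exposed to test compound for 48 hours across five concentrations. GI50: concentration for 50% inhibition of growth. TGI: concentration producing complete growth inhibition.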

Legend:
Assay in all cases: NCI anticancer screen, dose series, 48 h
SNB-78 CNS = system: SNB-78 CNS
M19-MEL melanoma = system: M19-MEL melanoma
KM20L2 colon = system: KM20L2 colon
BT-549 breast = system: BT-549 breast
HOP-18 NSCLC = system: HOP-18 NSCLC
DMS 114 small cell lung = system: DMS 114 small cell lung
RXF-631 renal = system: RXF-631 renal
XF 498 CNS = system: XF 498 CNS
MDA-N = system: MDA-N

Row | SMILES | TGI (SNB-78 CNS) | TGI (M19-MEL melanoma) | TGI (KM20L2 colon) | GI50 (BT-549 breast) | TGI (BT-549 breast) | TGI (HOP-18 NSCLC) | other results
1 | Cc1ccc(Nc2nc(-c3ccc(-c4ccc([N+](=O)[O-])cc4)o3)cs2)cc1 | > 100 µM | > 100 µM | > 100 µM |  |  |  | 
2 | CCOCCOCCOCCOCCOCCOCCOCCOCCOCCO (tested in a mixture with another compound) |  |  |  | 1.29 µM | 4.75 µM |  | 
3 | CC(=O)Nc1ccc(/C=c2\sc3nnc(-c4cccnc4)n3c2=O)cc1 | > 100 µM | 37.4 µM | 38.6 µM |  |  | 55.6 µM | TGI (DMS 114 small cell lung): 32.4 µM; TGI (RXF-631 renal): 55.2 µM
4 | COc1cc(C2NC(=O)C(C#N)=C(Nc3cccc(C)c3)S2)ccc1O (stereo not drawn) |  |  |  | > 100 µM | > 100 µM |  | 
5 | CC1=C2C=CC(=O)C[C@@]2(C)CCC1 | > 100 µM | > 100 µM |  |  |  |  | TGI (DMS 114 small cell lung): > 100 µM; TGI (XF 498 CNS): > 100 µM; TGI (RXF-631 renal): > 100 µM
6 | COc1ccc(/C=C/c2ccnc3ccccc23)cc1OC |  |  |  |  |  |  | TGI (MDA-N): 27 µM
7 | COc1cc(-c2ccc[nH]2)[nH]c1/C=C1\N=C(C)C(CC(=O)OCC(C)(C)C)=C1C |  |  |  | 0.286 µM | 1.87 µM |  | 
8 | C=C(C)C(=O)Nc1ccc(-c2c(-c3ccc(Oc4nccc(C)n4)c(F)c3)c3c(N)ncnc3n2C)cc1 |  |  |  | 2.08 µM | 15.8 µM |  | 
9 | O=C1[C@@H]2C(c3ccccc3[N+](=O)[O-])=NO[C@@H]2C(=O)N1c1ccc(Cc2ccc(N3C(=O)[C@H]4C(c5ccccc5[N+](=O)[O-])=NO[C@H]4C3=O)cc2)cc1 | > 100 µM |  | > 100 µM |  |  | > 100 µM | TGI (DMS 114 small cell lung): > 100 µM
10 | Cc1[nH]c2cc([N+](=O)[O-])ccc2c1[N+](=O)[O-] |  |  | > 100 µM |  |  |  | TGI (DMS 114 small cell lung): 33.6 µM; TGI (XF 498 CNS): 50 µM
11 | Cn1c(I)c(C#C[Si](C)(C)C)c(=O)[nH]c1=O |  |  |  | 3 µM | 9.21 µM |  | 
12 | Cc1c(-c2ccccn2)ccc2ccccc12 |  |  |  |  |  |  | TGI (MDA-N): > 100 µM
13 | COc1ccc2c(c1)-c1c(c3cc(OC)ccc3n(CCN(C)C)c1=O)C2=O |  |  |  | 5.84 µM | 12.9 µM |  | 
14 | CNC(=O)c1cc(Oc2ccc(NC(=O)Nc3cc(C(C)(C)C)nn3-c3ccc4ncccc4c3)c(F)c2)ccn1 |  |  |  | 1.08 µM and 2.27 µM | 4.58 µM and 5.65 µM |  | 
15 | CC1(C)C(=O)/C=C\C(=O)C(C)(C)C(=O)/C=C\C(=O)C(C)(C)C2=CC=C(O2)C(C)(C)C(=O)/C=C\C1=O | 15.7 µM | 13.6 µM | 28.3 µM |  | 24.2 µM | 37.1 µM | TGI (MDA-N): 19.1 µM; TGI (DMS 114 small cell lung): 21 µM; TGI (XF 498 CNS): 3.86 µM; TGI (RXF-631 renal): > 52.7 µM
16 | Cc1c(C(N)=O)sc2nc(C)n(/N=c3\scc(-c4ccccc4)n3Cc3ccccc3)c(=O)c12 |  |  |  | 2.41 µM | 8.89 µM |  | 
17 | O=C(N/C(=C\c1ccc(/C=C(\NC(=O)c2ccccc2)c2nc3c(O)nc(S)nc3[nH]2)cc1)c1nc2c(O)nc(S)nc2[nH]1)c1ccccc1 | > 100 µM |  | > 100 µM |  |  | > 100 µM | TGI (DMS 114 small cell lung): > 100 µM; TGI (XF 498 CNS): > 100 µM; TGI (RXF-631 renal): > 100 µM
18 | Fc1ccc(Nc2nc(Nc3ccc(-c4nc5ccccc5[nH]4)cc3)c3cn[nH]c3n2)cc1 |  |  |  | 2.36 µM | 6.4 µM |  | 
19 | S=C(SSC(=S)N1CCCCC1)N1CCCCC1 |  |  |  | 16.6 µM | 44.6 µM |  | 

Row | SMILES | TGI (SNB-78 CNS) | TGI (M19-MEL melanoma) | TGI (KM20L2 colon) | GI50 (BT-549 breast) | TGI (BT-549 breast) | TGI (HOP-18 NSCLC) | other results
20 | COc1cc(C(=O)O[C@H](C(=O)NCCCCNC(=O)[C@@H](OC(=O)c2cc(OC)cc3c(C)cccc23)[C@]2(C)CO2)[C@]2(C)CO2)c2cccc(C)c2c1 |  |  |  | 0.305 µM | 5.53 µM |  | 
21 | C[C@]12CCC(=O)C[C@@H]1CC[C@@H]1[C@@H]2CC[C@]2(C)[C@@H](OC(=O)N(CCCl)N=O)CC[C@@H]12 |  |  |  | 4.87 µM | 21.7 µM |  | 
22 | Oc1[nH]c2ccccc2c1C=Nc1ccc(-n2cncn2)cc1 |  |  |  | > 18.9 µM | > 25 µM |  | 
23 | CSc1ccc(C(=O)/C=C/c2ccc(Cl)cc2Cl)cc1 |  |  |  | 15.7 µM | 33.1 µM |  | 
24 | COC(=O)[C@@]12C3=NO[C@]1(C(=O)OC)C(O[Si](C)(C)C(C)(C)C)[C@@H](OC(C)=O)[C@@H](OC(C)=O)[C@@H]2[C@@H](OCc1ccccc1)CC3 (stereo partly drawn) | > 100 µM | > 100 µM | > 100 µM |  |  | > 100 µM | TGI (DMS 114 small cell lung): > 100 µM; TGI (XF 498 CNS): > 100 µM
25 | CSc1nc(SC)c2c(C)cn(COCCOC(=O)c3ccccc3)c2n1 |  |  |  |  | > 100 µM |  | TGI (MDA-N): > 100 µM
26 | COc1ccc2c(c1)[n+]([O-])c(-c1ccccc1Cl)c(N)[n+]2[O-] | > 100 µM | > 100 µM | > 100 µM |  |  | > 100 µM | TGI (DMS 114 small cell lung): > 100 µM; TGI (RXF-631 renal): > 100 µM
27 | CCOC(=O)/C=C1/SC(=Nc2ccc(C#N)cc2)N(Cc2ccco2)C1=O |  |  |  | 10.8 µM | 52.6 µM |  | 
28 | CC(=O)[CH-]C(=O)c1ccccc1.CC(=O)[CH-]C(=O)c1ccccc1.CC(=O)[CH-]C(=O)c1ccccc1.[Ga+3] |  | 30.5 µM | 42.6 µM |  |  | 61.5 µM | GI50 (HOP-18 NSCLC): 18 µM; GI50 (M19-MEL melanoma): 13.4 µM; GI50 (KM20L2 colon): 18.5 µM
29 | COC1/C(=C\C(C)=O)c2ccccc2N1C(C)=O (stereo not drawn) |  | > 100 µM | > 100 µM |  |  | > 100 µM | TGI (XF 498 CNS): > 100 µM; TGI (RXF-631 renal): > 100 µM
30 | CCN(CC)C(=S)SS(C)(=O)=O | 43.7 µM | 30.6 µM |  |  |  | > 100 µM | 
31 | COC(=O)c1cc2cc(/C=C3/SC(=S)N(N(C(C)=O)C(C)=O)C3=O)oc2n1Cc1ccccc1 |  |  |  | 24.2 µM | 54.2 µM |  | 
32 | COc1ccc2c(c1)C(=O)c1c-2n(CCCN(C)C)c(=O)c2cc([N+](=O)[O-])ccc12 |  |  |  | 0.0159 µM | 0.621 µM |  | 
33 | O=C(NCCNCCO)c1ccc(Nc2nc3ccccc3c3occc23)cc1 |  |  |  | 11.5 µM | 34.2 µM |  | 
34 | CCN(CC)c1c(C)nnn1C1OC(COC(C)=O)C(OC(C)=O)C(OC(C)=O)C1OC(C)=O (stereo not drawn) | > 100 µM | > 100 µM | > 100 µM |  |  | > 100 µM | TGI (DMS 114 small cell lung): > 100 µM; TGI (RXF-631 renal): > 100 µM
35 | O=C1C(Cl)=C(NCCCN(CCCNC2=C(Cl)C(=O)c3ccccc3C2=O)C2=C(Cl)C(=O)c3ccccc3C2=O)C(=O)c2ccccc21 |  |  |  | 2.5 µM | 13.5 µM |  | 
36 | CCN(CC)c1ccc(C2N3CCCCC3[C@@H]3c4[nH]c5ccccc5c4CCN23)cc1 (stereo partly drawn) | 61.3 µM | 57.1 µM | > 100 µM |  |  | > 100 µM | TGI (DMS 114 small cell lung): 33.1 µM; TGI (XF 498 CNS): 41 µM
37 | NC(=O)c1ncn(C2OC(CO)C(O)C2O)c1O (stereo not drawn) | > 100 µM | > 100 µM | > 100 µM |  |  | > 100 µM | TGI (DMS 114 small cell lung): > 100 µM; TGI (XF 498 CNS): > 100 µM; TGI (RXF-631 renal): > 100 µM
